From patent publication US5891882A, “Benzopyranopyrrole and benzopyranopyridine α-1 adenergic compounds” (priority 1997, dated 1999)
Counter-ions that a name gives are not always drawn. Like-named read-outs stand apart in the source and are kept apart here.

Legend:
[1] = target: T1, α-1d adrenoreceptor (rat) (Rattus norvegicus, UniProt P23944); test: In vitro [3H]-prazosin radioligand binding, cloned α-1d adrenoreceptor expressed in LTK cells
T1 construct: expressed in transfected cells; cDNA from TULCO; membranes
T1 sequence (P23944 1-561): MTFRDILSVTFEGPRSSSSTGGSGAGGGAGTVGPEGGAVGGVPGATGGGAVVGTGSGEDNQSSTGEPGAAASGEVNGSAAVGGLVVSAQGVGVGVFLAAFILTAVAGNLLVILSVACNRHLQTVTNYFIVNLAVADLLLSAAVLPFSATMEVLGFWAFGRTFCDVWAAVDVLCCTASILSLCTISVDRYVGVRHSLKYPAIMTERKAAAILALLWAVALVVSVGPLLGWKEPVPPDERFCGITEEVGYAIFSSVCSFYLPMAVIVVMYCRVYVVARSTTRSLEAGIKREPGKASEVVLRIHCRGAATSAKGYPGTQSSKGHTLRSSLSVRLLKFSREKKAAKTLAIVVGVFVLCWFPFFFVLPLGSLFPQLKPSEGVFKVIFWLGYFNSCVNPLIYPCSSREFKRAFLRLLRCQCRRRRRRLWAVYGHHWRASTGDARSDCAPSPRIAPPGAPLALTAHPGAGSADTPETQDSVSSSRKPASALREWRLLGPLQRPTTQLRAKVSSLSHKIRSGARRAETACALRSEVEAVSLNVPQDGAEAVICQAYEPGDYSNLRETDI
Procedure: Additionally, binding affinity against the pharmacologically defined α-1A adrenoreceptor (rat submaxillary gland) was measured.
The cDNA clones encoding the α-1 adrenoreceptors (α-1a, α-1b, and α-1d) were obtained from TULCO (Triangle Universities Licensing Consortium, Research Triangle Park, N.C.) and inserted into the eukaryotic expression vector SnaB30. In this vector, expression of the adrenoreceptor gene is under the transcriptional control of an SV40 early promoter. Positive drug selection is provided by a neomycin-resistance gene. Mouse fibroblast cells (LTK) were transfected with the α1 expression plasmids and grown in Dulbecco's modified Eagle's medium (DMEM) containing 10% fetal calf serum and […]. Stable G418-resistant parental lines were generated, with successful expression of adrenoreceptor protein monitored using radioligand binding techniques. Stable single cell clones derived from the parental lines were screened in adrenoreceptor binding assays to identify clones having high adrenoreceptor density. Roller bottle cultures of the cloned lines were used to provide cell membranes for subsequent adrenoreceptor binding characterization studies. A cell line containing the SnaB30 vector expressing the human erythropoietin gene served as a negative control.
For adrenoreceptor binding assays, large scale membrane preparations were utilized in which 6 million cells were seeded into small (450 cm^2) Corning tissue culture roller bottles. 200 mL of DMEM containing 10% fetal calf serum and 300 μM G418 were added to each roller bottle. A 95% air/5% CO2 gas mixture (sterile) was injected into each roller bottle prior to sealing. The bottles were then incubated at 37° C. on a roller rack for 5 days. Cells were re-fed with fresh medium after 3 days in culture.
On the fifth day of culture, growth medium was removed from cells grown in roller bottles, and the cells were washed twice with PBS (Sigma, 120 mM NaCl, 2.7 mM KCl, 10 mM Na2 HPO4 --NaH2 PO4, pH=7.4). Cells were detached from the roller bottles by incubating for 15 minutes at 37° C. in a Tris-EDTA solution (10 mM Tris, 100 mM NaCl, 1 mM EDTA, pH=7.4). The cell suspension from each roller bottle was decanted into tared centrifuge tubes and kept on ice. An aliquot of each cell suspension was generally taken for cell counting. Cells were centrifuged at 3000×G for 5 min at 2°-4° C., washed with PBS and recentrifuged. The supernatant was decanted and the pellet weighed to determine the wet weight of cells. Cells were washed a final time in 40 vol 5 mM Tris-HCl, 5 mM EDTA, pH=7.7, and centrifuged at 40,000×G for 10 minutes. Cells were homogenized in 10 mL of 50 mM Tris-HCl, 5 mM EDTA (pH=7.4) and diluted to 40 mL/tube. Homogenates were centrifuged at 40,000×G for 10 minutes. The supernatant was decanted and the pellets rehomogenized in 50 mM Tris-HCl (pH=7.4) and centrifuged as before. The supernatant was decanted and the homogenate resuspended in 6.25 volumes (per gram wet weight) of 50 mM Tris-HCl and aliquots of the pooled homogenates frozen in liquid N2 and stored at -70° C. until the time of assay. Rat submaxillary glands were used for α-1A adrenoreceptors and were prepared essentially as described (Michel, A. D., Loury, D. N. and Whiting, R. L., Brit. J. Pharmacol. 98: 83-889 (1989)).
Receptor binding assays for α-1 adrenoreceptors were performed essentially as described by Greengrass and Bremner (Eur. J. Pharmacol. 55: 323-326 (1979)). […] Radioactivity was determined by standard liquid scintillation techniques. Data were analyzed as previously described (Hancock, A. A., Kyncl, J. J., Martin, Y. C. and DeBernardis, J. F., J Receptor Res. 8: 23-46 (1988)).

[2] = target: T2, α-1B adrenoreceptor (rat spleen) (Rattus norvegicus, UniProt P15823); test: Functional antagonism: inhibition of phenylephrine-induced contraction of rat spleen; format: cell-based
T2 construct: from tissue; host or cells: rat spleen
T2 sequence (P15823 1-515): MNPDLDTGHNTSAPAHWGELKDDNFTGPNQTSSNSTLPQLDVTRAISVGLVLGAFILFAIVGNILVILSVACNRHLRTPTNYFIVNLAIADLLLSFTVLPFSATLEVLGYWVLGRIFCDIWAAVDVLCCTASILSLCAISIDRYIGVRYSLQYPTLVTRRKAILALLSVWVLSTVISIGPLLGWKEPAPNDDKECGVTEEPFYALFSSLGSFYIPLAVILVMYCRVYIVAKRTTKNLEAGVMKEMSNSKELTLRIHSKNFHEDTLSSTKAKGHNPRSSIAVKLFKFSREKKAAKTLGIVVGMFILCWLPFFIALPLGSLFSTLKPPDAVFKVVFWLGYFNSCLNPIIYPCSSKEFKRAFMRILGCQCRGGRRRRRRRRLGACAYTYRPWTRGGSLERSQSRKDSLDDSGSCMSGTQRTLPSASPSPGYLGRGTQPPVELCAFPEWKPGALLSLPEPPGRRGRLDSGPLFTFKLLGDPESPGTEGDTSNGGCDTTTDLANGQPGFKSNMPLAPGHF
Description: Functional assays indicative of pharmacologically defined α-1 adrenoreceptors were used to further characterize compounds. Inhibition of phenylephrine (PE)-induced contraction of canine prostate smooth muscle can be correlated with α-1A adrenoreceptor activation. […] For each of these models, agonist dose response curves were repeated against increasing concentrations of test agent to derive a Schild plot [log ([…]) against log (molarity of test agent)] to determine the pA2.

[3] = cloned rat α-1d in LTK cells, [3H]prazosin 0.2 nM, read-out: Radioligand Binding (Ki; nM) 1d (Rat)

| Compound | Ki [1] [nM] | Kb [2] [nM] | Ki [1, 3] [nM] | In Vitro Characterization (pA2) Rat Spleen ([2]; rat spleen, phenylephrine-induced contraction, Schild plot) |
| --- | --- | --- | --- | --- |
| COc1cccc2c1[C@@H]1CCN(CCCCn3c(=O)[nH]c4c(sc5ccccc54)c3=O)C[C@H]1CO2 (relative stereo) [Example 87, 3-[4-((±)-trans-10-Methoxy-1,3,4,4a,5,10b-hexahydro-2H-[1]-benzopyrano[3,4-c]pyrido-3-yl)butyl]-[1]-benzthieno[3,2-d]pyrimidine-2,4(1H,3H)-dione hydrochloride] | 0.704 | 72.4 | – | – |
| COc1cccc2c1[C@@H]1CCN(CCCCn3c(=O)[nH]c4c(sc5cccnc54)c3=O)C[C@H]1CO2 (relative stereo) [Example 88, 3-[4-((±)-trans-10-Methoxy-1,3,4,4a,5,10b-hexahydro-2H-[1]-benzopyrano[3,4-c]pyrido-3-yl)butyl]-pyrido[2',3':4,5]thieno[3,2-d]pyrimidine-2,4(1H,3H)-dione hydrochloride] | 0.259 | 72.4 | – | – |
| COc1cc2[nH]c(=O)n(CCN3CC[C@H]4c5c(OC)cccc5OC[C@@H]4C3)c(=O)c2cc1OC (relative stereo) [Example 91, 3-[2-((±)-trans-10-Methoxy-1,3,4,4a,5,10b-hexahydro-2H-[1]-benzopyrano[3,4-c]pyrido-3-yl)ethyl]-6,7-dimethoxy-quinazoline-2,4(1H,3H)-dione hydrochloride] | – | – | 0.495 | – |
| COc1ccc2c(n1)sc1c(=O)n(CCCCN3C[C@@H]4COc5cccc(OC)c5[C@@H]4C3)c(=O)[nH]c12 [Example 33, hydrochloride] | – | – | 0.701 | 7.83 |
